In assay [1] the test system is H. influenzae (strain 46519). In words: inhibition of adherence of H. influenzae (strain 46519) to epithelial cells. The assay is classed as cell-based. Particulars: Haemophilus influenzae, Epithelial cell, read-out: IC50 [mean (SD)]. From the text: (§1) A method similar to that of Rostand, K. and Esko, (1993) J. Biol. Chem. 268 pp 24053-3, which studied the binding of radiolabelled P. aeruginosa to CHO cells was used to test for the binding inhibition of oligosaccharide compounds. For the studies described herein, S. pneumoniae (strains R-6, P70, and other clinical respiratory isolates) were labelled by culture in lysine-deficient tryptic soy broth containing ^3 H-lysine. The tryptic soy broth was made deficient in lysine by pre-treating it with lysine decarboxylase from E. coli. The bacteria were cultured for 4-5 hours, at which point the culture was in exponential growth. The bacteria were harvested and washed in Leibovitz L-15 Medium supplemented with 0.2% low-endotoxin bovine serum albumin. The bacteria were diluted to approximately 3×10^8 /mL, and then mixed 1:1 with either L-15-BSA or with various compounds to be tested. The bacterial mixtures were incubated at room temperature, with gentle agitation on an orbital shaker. After 10-15 min, samples of the bacterial mixtures were transferred to the surface of a confluent monolayer of cultured epithelial cells in a 96-well polystyrene plate. The cells most commonly used were the Wong-Kilbourne derivative of Chang conjunctiva. The human nasopharyngeal cell line Detroit 562, and the human lung cell line A549 were also used. The bacteria were incubated with the cells for 30 min with gentle agitation, at room temperature. The unbound bacteria were washed away with PBS containing 0.2% bovine serum albumin. Scintillant solution was added to the wells, and the plate was put in a microplate scintillation counter for quantitation of bound bacteria.
(§2) Adhesion of H. influenzae to epithelial cells was performed with the same protocol with the following modifications: The bacteria were cultured overnight in lysine-deficient Haemophilus test media. The bacteria were incubated with the cells at a concentration near 10^7 /mL for 60 min.
(§3) Using the testing protocol described in Example 2, four strains of bacteria were tested for binding inhibition by different oligosaccharide compounds.

The test system of a further assay is S. pneumoniae. In words: inhibition of adherence of S. pneumoniae to respiratory epithelial cells. To be noted: Streptococcus pneumoniae. The assay is classed as cell-based.
In assay [2] the test system is H. influenzae (strain 39689). In words: inhibition of adherence of H. influenzae (strain 39689) to epithelial cells. Format: cell-based. To be noted: Haemophilus influenzae, Epithelial cell, read-out: IC50 [mean (SD)].
From the text: as §1, §2, §3

In assay [3] the test system is immunoglobulin E-binding protein. Particulars: Feizi et al Biochemistry 1994; cited from earlier work.
Assay [4] has as its system S. pneumoniae strain AII. In words: colonization of rabbit lungs with S. pneumoniae in the presence of an adherence-inhibitory oligosaccharide. To be noted: 100 μM. Format: in vivo, New Zealand white rabbits. An excerpt: Rabbits S. pneumoniae strain AII were mixed with oligosacchardies and administered to New Zealand white rabbits by tracheal instillation, and lung lavage colonies were counted at the indicated time by the method described in Saukkonen, et al., 1991, J. Exp. Med. 173:1143-9.

The subject of another assay is Escherichia coli C600. To be noted: Rosenstein et al (1992); cited from earlier work.
Assay [5] deals with Pseudomonas aeruginosa M35. To be noted: Rosenstein et al (1992); isolate from cystic fibrosis patients; cited from earlier work.
Assay [6] relates to Burkholderia (Pseudomonas) cepacia. In words: inhibition of adherence of Burkholderia (Pseudomonas) cepacia to respiratory epithelial cells. The assay is classed as cell-based.
From the text: as §1, §3

Assay [7] concerns S. pneumoniae strain AII. In words: treatment of rabbits pre-colonized with S. pneumoniae with adherence-reversing oligosaccharide. Format: in vivo, New Zealand white rabbits. On the procedure: S. pneumonaie strain AII were administered to New Zealand white rabbits by tracheal instillation. All rabbits were sick at 24 h, with indications of pneumonia. After 24 h oligosaccharide (LNnT) or control (saline) was administered intratracheally. After an additional 24 h lung lavage colonies were counted as described in Example 3.

The test system of another assay is Pseudomonas aeruginosa. To be noted: Ramphal et al (1991); cited from earlier work.
Another assay has as its system Escherichia coli. Particulars: Ginsburg et al U.S. Pat. No. 5,225,330; cited from earlier work.
Another assay relates to Mycoplasma pneumoniae. To be noted: Ginsburg et al U.S. Pat. No. 5,225,330, Table I; cited from earlier work.
The next assay relates to Streptococcus pneumoniae. Particulars: Andersson et al J. Exp. Med. (1983); cited from earlier work.
[8] abbreviates: A549, read-out: IC50 [mean (SD)], Monovalent, A549 human lung carcinoma, activated with IL1.
Where [9] appears, read: Epithelial cell, read-out: IC50 [mean (SD)], Monovalent, Chang human conjunctival carcinoma.
Where [10] appears, read: HUVEC, read-out: IC50 [mean (SD)], Monovalent, HUVEC activated with TNFα or thrombin.
[11] abbreviates: experiment 1, inoculum 5 × 10^5 bacteria, intratracheal, 4 day lavage.
The mark [12] stands for this setting: experiment 2, inoculum 5 × 10^5 bacteria, intratracheal, 4 day lavage.
The mark [13] stands for this setting: experiment 3, inoculum 5 × 10^7 bacteria, 24 h lavage.
The mark [14] stands for this setting: Calu-3, read-out: IC50 [mean (SD)], Monovalent, CaLu-3 human lung carcinoma.
[15] abbreviates: Epithelial cell, read-out: IC50 [mean (SD)], Monovalent, Det-562 human nasopharyngeal carcinoma.
The mark [16] stands for this setting: Burkholderia, Calu 3 cells, read-out: IC50 [mean (SD)].

Several values for one entry are separate records, joined by “and”; a condition that tells them apart may be missing. Equal values may be shown once. Read-outs that look alike come from different tables or passages of the source.

Broadly, the IC50 is the midpoint of a concentration-inhibition curve.

With `CC(=O)N[C@H]1[C@H](O[C@H]2[C@@H](O)[C@@H](CO)O[C@@H](O[C@H]3[C@H](O)[C@@H](O)C(O)O[C@@H]3CO)[C@@H]2O)O[C@H](CO)[C@H](O)[C@@H]1O` (stereo partly drawn) [Ga1NAc β1-3 Ga1β1-4 Glc, GalNAcβ1-3-Galβ1-4-Glc], the IC50 in assay [1] is 4200 µM; with S. pneumoniae (setting [8]), 85 µM; in the assay on S. pneumoniae (setting [9]) it was more than 6000 µM; in the assay with S. pneumoniae (setting [10]), 70 µM; in assay [2], 10600 µM.
Consider `CC(=O)N[C@H]1[C@H](O[C@H]2[C@@H](O)[C@@H](CO)O[C@@H](O[C@H]3[C@H](O)[C@@H](O)C(O)O[C@@H]3CO)[C@@H]2O)O[C@H](CO)[C@@H](O)[C@@H]1O[C@@H]1O[C@H](CO)[C@H](O)[C@H](O[C@]2(C(=O)O)C[C@H](O)[C@@H](NC(C)=O)[C@H]([C@H](O)[C@H](O)CO)O2)[C@H]1O` (stereo partly drawn) [NeuAcα2-3-Galβ1-3-GlcNAcβ1-3-Galβ1-4-Glc, reference compound], for which, in assay [3], the “binding by immunoglobulin E-binding protein” value was “strongly bound”.
As for `CC(=O)N[C@H]1[C@H](O[C@H]2[C@@H](O)[C@@H](CO)O[C@@H](O[C@H]3[C@H](O)[C@@H](O)C(O)O[C@@H]3CO)[C@@H]2O)O[C@H](CO)[C@@H](O[C@@H]2O[C@H](CO)[C@H](O)[C@H](O[C@@H]3O[C@H](CO)[C@H](O)[C@H](O)[C@H]3NC(C)=O)[C@H]2O)[C@@H]1O` (stereo partly drawn) [Ga1NAc β1-3 LNnT, GalNAcβ1-3-Galβ1-4-GlcNAcβ1-3-Galβ1-4-Glc], the IC50 in assay [1] was 7800 µM; with S. pneumoniae (setting [8]) it was 80 µM; with S. pneumoniae (setting [10]) it was 75 µM; in assay [2], more than 10000 µM.
On to `CC(=O)N[C@H]1[C@H](O[C@H]2[C@@H](O)[C@@H](CO)O[C@@H](O[C@H]3[C@H](O)[C@@H](O)C(O)O[C@@H]3CO)[C@@H]2O)O[C@H](CO)[C@@H](O[C@@H]2O[C@H](CO)[C@H](O)[C@H](O[C@]3(C(=O)O)C[C@H](O)[C@@H](NC(C)=O)[C@H]([C@H](O)[C@H](O)CO)O3)[C@H]2O)[C@@H]1O` (stereo partly drawn) [LSTd, NeuAcα2-3-Galβ1-4-GlcNAcβ1-3-Galβ1-4-Glc], for which the IC50 is 95 µM with S. pneumoniae (setting [8]), 600 µM in the assay with S. pneumoniae (setting [9]) and 90 µM with S. pneumoniae (setting [10]).
Consider `CC(=O)N[C@H]1[C@H](O[C@H]2[C@@H](O)[C@@H](CO)O[C@@H](O[C@H]3[C@H](O)[C@@H](O)C(O)O[C@@H]3CO)[C@@H]2O)O[C@H](CO)[C@@H](O[C@@H]2O[C@H](CO)[C@H](O)[C@H](O)[C@H]2O)[C@@H]1O` (stereo partly drawn) [LNnT, Galβ1-4-GlcNAcβ1-3-Galβ1-4-Glc], for which the “CFU (lung lavage)” value was 8.7 × 10^2 CFU (colonies/ml lavage fluid) and 4.7 × 10^3 CFU (colonies/ml lavage fluid) with S. pneumoniae strain AII [4] (experiment 1, inoculum 5 × 10^5 bacteria, intratracheal, 24 h lavage, 2 rabbits/group, one value per rabbit); < 10 CFU (colonies/ml lavage fluid) in the assay with S. pneumoniae strain AII [4] (setting [11]); 0 CFU (colonies/ml lavage fluid) in the assay on S. pneumoniae strain AII [4] (setting [12]); 0 CFU (colonies/ml lavage fluid) in the assay on S. pneumoniae strain AII [4] (setting [13]); 1.1 × 10^3 CFU (colonies/ml lavage fluid) and 1.4 × 10^3 CFU (colonies/ml lavage fluid) in the assay with S. pneumoniae strain AII [4] (experiment 4, inoculum 10^5 bacteria, intratracheal, 24 h lavage); 0 CFU with S. pneumoniae strain AII [7] (inoculum 10^5 bacteria, 100 μM intratracheal, lavage 24 h after oligosaccharide treatment and 48 h after bacterial instillation). Also, the IC50 in [1] is more than 14000 µM; in the assay with S. pneumoniae (setting [8]), 95 µM; in the assay with S. pneumoniae (setting [14]), more than 16000 µM; in the assay on S. pneumoniae (setting [9]) it was 8000 µM; with S. pneumoniae (setting [15]) it was 7000 µM; with S. pneumoniae (setting [10]), 52 µM. Further, the concentration for half-maximal inhibition (IC50) is 5600 µM in assay [6] (setting [16]) and more than 14000 µM in assay [2]. Also, the binding activity entry (in the assay with Escherichia coli C600; in [5]) was “high binding activity” each time. The “condition of treated rabbits” value in the assay on S. pneumoniae strain AII [7] (at 48 h) is “healthy”.
For `CC(=O)N[C@H]1[C@H](O[C@H]2[C@@H](O)[C@@H](CO)O[C@@H](O[C@H]3[C@H](O)[C@@H](O)C(O)O[C@@H]3CO)[C@@H]2O)O[C@H](CO)[C@@H](O[C@@H]2O[C@H](CO[C@]3(C(=O)O)C[C@H](O)[C@@H](NC(C)=O)[C@H]([C@H](O)[C@H](O)CO)O3)[C@H](O)[C@H](O)[C@H]2O)[C@@H]1O` (stereo partly drawn) [LSTc, NeuAcα2-6-Galβ1-4-GlcNAcβ1-3-Galβ1-4-Glc], the “CFU (lung lavage)” value with S. pneumoniae strain AII [4] (setting [11]) is < 10 CFU (colonies/ml lavage fluid); in the assay on S. pneumoniae strain AII [4] (setting [12]), 0 CFU (colonies/ml lavage fluid); in the assay on S. pneumoniae strain AII [4] (setting [13]), 0 CFU (colonies/ml lavage fluid). Moreover, the binding activity entry (with Escherichia coli C600; in assay [5]) was “no activity” in each case. The IC50 in the assay on S. pneumoniae (A549, first table, A549 lung carcinoma, activated with IL1) is 100 µM; in the assay with S. pneumoniae (setting [8]) it was 69 µM; in the assay with S. pneumoniae (Calu-3, first table, CaLu-3 lung carcinoma), 4400 µM; in the assay on S. pneumoniae (setting [14]) it was 4400 µM; in the assay with S. pneumoniae (Epithelial cell, first table, 1° lung: rat tracheal primary epithelium) it was 400 µM; in the assay with S. pneumoniae (Epithelial cell, first table, CHANG cells), 1500 µM. The IC50 in the assay on S. pneumoniae (Epithelial cell, first table, Det-562 nasopharyngeal carcinoma) is 5400 µM; in the assay on S. pneumoniae (Epithelial cell, read-out: IC50 [mean (SD)], Monovalent, 1° lung: rat trachea epithelial monolayer (primary)), 250 µM; in the assay with S. pneumoniae (setting [9]), 1400 µM; with S. pneumoniae (setting [15]), 4000 µM; in the assay on S. pneumoniae (FaDu, first table, FaDu nasopharyngeal carcinoma), 4000 µM; in the assay with S. pneumoniae (FaDu, read-out: IC50 [mean (SD)], Monovalent, FaDu human nasopharyngeal carcinoma), 4500 µM. Moreover, the IC50 was 100 µM with S. pneumoniae (HUVEC, first table, HUVEC activated with TNFα or thrombin); 69 µM in the assay with S. pneumoniae (setting [10]); 1000 µM in [6] (setting [16]); 1000 µM in assay [6] (first table (P. cepacia), CaLu-3 lung carcinoma, read-out: IC50); more than 10000 µM in assay [2]. The “binding by immunoglobulin E-binding protein” value in assay [3] is reported as “not bound or is only negligibly bound”. Further, the “activity in the direct adhesion assay” value with Pseudomonas aeruginosa is “no activity”.
As to N-glycolylsialoparagloboside, the inhibition entry in the assay with Escherichia coli is “inhibition”.
On to sialylparagoboside, for which the binding inhibition result with Mycoplasma pneumoniae was “no activity”.
Take “NeuAcα2-3Galβ1-4-GlcNAcβ1-3-Galβ1-4-Glc--Cer [compound 3]”: the binding inhibition entry with Streptococcus pneumoniae is reported as “no effect”.
